This is an account of results in patent US4044150A, “Antihypertensive 4'-[1-hydroxy-2-[(1-phenoxy ethyl)-amino]ethyl]methanesulfonanilide and salts thereof and therapeutic use” (Mead Johnson & Company, priority 1976, dated 1977).

A short description of series [1]: acute toxicity in rats (oral LD50). Conditions: rat, in vivo, hydrochloride.
Series [2] can be described thus: acute toxicity in mice (LD50). Conditions: mouse, in vivo, hydrochloride.
For series [3], the system named is Anesthetized Dog Challenged with Isoproterenol. Description: inherent cardiac and blood pressure effects in the isoproterenol challenged intact anesthetized dog. The format is in vivo. Conditions: for Absolute Change From Control in Contractile Force (CF) / Absolute Change From Control in Heart Rate (HR) / Absolute Change From Control in Mean Arterial Blood Pressure (MABP): decrease. How it is done:
One such test involves the measurement of inherent cardiac and blood pressure effects in the isoproterenol challenged intact anesthetized dog. In this test model, dogs are anesthetized with a mixture of phenobarbital sodium (15 mg./kg.) and barbital sodium (225 mg./kg.) intravenously and are vagotomized bilaterally. Heart rate, contractile force and diastolic blood pressure are continuously recorded with alterations in these responses (e.g. tachycardia) produced by intravenously administered isoproterenol determined before and after injection of increasing doses of the test compound. The test substance is administered to separate groups of dogs at cumulative doses of 0.1, 0.3, 1, 3, and 10 mg./kg. body weight with each dose of the test substance infused slowly over a period of 3-5 minutes. After completing infusion of the test substance, a 10 -minute equilibrium period is allowed for drug-receptor interaction and stabilization of the cardiovascular system before a series of isoproterenol challenges is initiated. Maximum response to isoproterenol is achieved after each dose of the beta-adrenergic blocking agent by logarithmically increasing the dose of this agonist as receptor blockade develops. Each dose of isoproterenol is given approximately 5 minutes after the previous one and the overall dose range for isoproterenol is from 0.03-300 micrograms per kilogram body weight. Mean changes in the resting levels of the cardiovascular variables (heart rate, contractile force, and mean arterial blood pressure) due to the administration of each agent (which is taken as a measure of the inherent drug effect) is determined and statistically compared using the Student's test.

Series [4] deals with Spontaneous Hypertensive Rat. The experiment in a line: lowering of blood pressure and heart rate in the spontaneously hypertensive rat (SHR). The format is in vivo. The conditions noted are these: for ED (40 mm Hg) / ED (10%): Rattus norvegicus, 4 h; for ED (40 mm Hg): read-out: Dose which lowers blood pressure by 40 mm Hg; for ED (10%): read-out: Dose which lowers heart rate by 10%; for reduction of heart rate / reduction of systolic blood pressure: doses of 50-200 mg./kg., 4 hours (FIG. 1, FIG. 2). How it is done:
FIG. 1 constitutes a dose-response graph of blood pressure and heart rate changes determined in the spontaneous hypertensive rat 4 hours after orally administered 4'-[1-hydroxy-2-[(1 -phenoxyethyl)amino]ethyl]methanesulfonanilide (Compound A). Blood pressure changes at doses of 50, 100, and 200 mg./kg. body weight are given in millimeters of mercury and are represented by circles (-0 -) with percent change in heart rate represented by squares (- -).
FIG. 2 constitutes a dose-response graph of blood pressure and heart rate changes similar to that of FIG. 1 for 4-[2-( 1-phenoxy-2-propylamino)-1-hydroxyethyl]methanesulfonanilide (Compound B).
Another in vivo animal experiment considered predictive of antihypertensive utility by those skilled in the art is the lowering of blood pressure in an inbred strain of spontaneously hypertensive rat (SHR) established by Okamoto and Aoki. In this test, systolic blood pressure and heart rate determinations are made immediately before the animals are orally dosed to provide control values and subsequently thereafter at 4 and 24-hour periods to determine drug effect. Various doses of test drug are administered and a dose-response graph obtained by plotting (on semi-log paper) the observed change (mm Hg) in systolic blood pressure and percent change in heart rate as […]. […] Values set forth in Table II below are taken from FIGS. 1 and 2.

The subject of another series is mammals. The experiment in a line: general statement on heart rate at effective antihypertensive doses. The format is in vivo. Conditions: for change in heart rate: at effective antihypertensive or hypotensive doses.
For the next series, the system named is beta-receptor. The conditions noted are these: isolated guinea pig tracheal spiral; Uloth et al., J. Med. Chem. 9, 88-97 (1966); cited from earlier work.
Where [5] appears, read: 0.3 mg/kg i.v., + = increase from control (footnote c).

“Also recorded” adds a separate entry of the source.

`CS(=O)(=O)Nc1ccc(C(O)CNCCOc2ccccc2)cc1.Cl` (stereo not drawn) [4'-[1-Hydroxy-2-[(2-phenoxyethyl)amino]ethyl]methanesulfonanilide Hydrochloride]: the LD50 in series [1] (female rat) was found to be 1950 mg/kg; in series [1] (male rat), 3550 mg/kg; in series [2] (ip, intraperitoneal, read-out: intraperitoneal LD50) it was 273 mg/kg; in series [2] (oral, read-out: oral LD50) it was 1920 mg/kg.
In the case of `CS(=O)(=O)Nc1ccc(C(O)CNCCOc2ccccc2)cc1` (stereo not drawn) [Compound A, 4'-[1-hydroxy-2-[(2-phenoxyethyl)amino]ethyl]methanesulfonanilide], in series [3] (0.1 mg/kg i.v.), the “Absolute Change From Control in Contractile Force (CF)” value (shortened to “Absolute Change From Control … (CF)”) is given as 9 ± 6 gm, the “Absolute Change From Control in Heart Rate (HR)” value is 18 ± 4 bpm and the “Absolute Change From Control in Mean Arterial Blood Pressure (MABP)” value (shortened to “Absolute Change From Control … (MABP)”) came out at 11 ± 1 mm Hg. In series [3] (0.3 mg/kg i.v.), the “Absolute Change From Control … (CF)” value was 8 ± 6 gm and the “Absolute Change From Control in Heart Rate (HR)” value is 22 ± 4 bpm. The “Absolute Change From Control … (MABP)” value in series [3] (setting [5]) came to 17 ± 3 mm Hg. In series [3] (1.0 mg/kg i.v.), the “Absolute Change From Control … (CF)” value is given as 11 ± 5 gm, the “Absolute Change From Control in Heart Rate (HR)” value turned out to be 32 ± 5 bpm and the “Absolute Change From Control … (MABP)” value came out at 12 ± 3 mm Hg. In addition, in series [3] (3.0 mg/kg i.v.), the “Absolute Change From Control … (CF)” value is 11 ± 5 gm, the “Absolute Change From Control in Heart Rate (HR)” value is listed as 38 ± 6 bpm and the “Absolute Change From Control … (MABP)” value amounted to 16 ± 4 mm Hg. In series [3] (10.0 mg/kg i.v.), the “Absolute Change From Control … (CF)” value amounted to 17 ± 7 gm, the “Absolute Change From Control in Heart Rate (HR)” value is given as 38 ± 6 bpm and the “Absolute Change From Control … (MABP)” value is on record as 34 ± 7 mm Hg. Moreover, in series [3] (dose of 0.1 mg./kg.), the “reduction in heart rate” value is listed as 12%. For the same compound, the “effect on mean arterial blood pressure” value in series [3] (doses of 0.3 to 1.0 mg./kg.) is “effectively reduces mean arterial blood pressure”. In series [4] (oral, taken from FIGS. 1 and 2), the ED (40 mm Hg) amounted to 165 mg/kg, the ED (10%) stood at 150 mg/kg, the “Percent decrease in blood pressure at dose lowering heart rate by 10%” value stood at 38% and the “Percent decrease in heart rate at dose lowering blood pressure by 40 mm Hg” value was 11%. In addition, the “bradycardia liability relative to Compound B” value in series [4] (at doses sufficient to reduce blood pressure by 40 mm Hg) is “about 50%”. Moreover, in series [4] (oral), the “reduction of heart rate” value was 2-12% and the “reduction of systolic blood pressure” value is 22-43 mm Hg. Also, the “change in heart rate” value with mammals was “little or no effect on heart rate”. Moreover, the “change in heart rate” value with mammals (listed as compound of the instant invention) is “little or no significant change in heart rate”. Further, the “effect on blood pressure” value in the series on mammals (effective dose) was “reduces blood pressure”.
For the compound `CC(COc1ccccc1)NCC(O)c1ccc(NS(C)(=O)=O)cc1` (stereo not drawn) [Compound B, 4-[2-(1-phenoxy-2-propylamino)-1-hydroxyethyl]methanesulfonanilide, reference compound], the “beta-receptor blocking activity relative to dichloroisoproterenol” value with beta-receptor is given as “four times the activity of dichloroisoproterenol”. Further, in series [3] (0.3 mg/kg i.v.), the “Absolute Change From Control … (CF)” value was determined as 6 ± 7 gm and the “Absolute Change From Control in Heart Rate (HR)” value was determined as 29 bpm. Further, the “Absolute Change From Control … (MABP)” value in series [3] (setting [5]) is on record as “+1 ± 5 mm Hg”. For the same compound, in series [3] (1.0 mg/kg i.v.), the “Absolute Change From Control … (CF)” value was found to be 4 ± 7 gm, the “Absolute Change From Control in Heart Rate (HR)” value was determined as 39 ± 7 bpm and the “Absolute Change From Control … (MABP)” value is 2 ± 6 mm Hg. Besides, in series [3] (3.0 mg/kg i.v.), the “Absolute Change From Control … (CF)” value is on record as 4 ± 7 gm, the “Absolute Change From Control in Heart Rate (HR)” value is on record as 54 ± 7 bpm and the “Absolute Change From Control … (MABP)” value came out at 10 ± 8 mm Hg. In series [3] (10.0 mg/kg i.v.), the “Absolute Change From Control … (CF)” value is 6 ± 9 gm, the “Absolute Change From Control in Heart Rate (HR)” value turned out to be 72 ± 9 bpm and the “Absolute Change From Control … (MABP)” value is 28 ± 14 mm Hg. Also, in series [3] (dose of 3 mg./kg.), the “reduction in heart rate” value amounted to 33%. Moreover, in series [3] (doses of 0.3 to 1.0 mg./kg.), the “effect on heart rate (bradycardia)” value is “pronounced bradycardia” and the “effect on mean arterial blood pressure” value is “no significant effect”. In series [4] (oral, taken from FIGS. 1 and 2), the ED (40 mm Hg) came out at 100 mg/kg, the ED (10%) is 18 mg/kg, the “Percent decrease in heart rate at dose lowering blood pressure by 40 mm Hg” value is 21% and the “decrease in blood pressure at dose lowering heart rate by 10% (in words)” value was “no significant; also recorded: no effect on blood pressure”. Further, in series [4] (oral), the “reduction of heart rate” value is reported as 17-25% and the “reduction of systolic blood pressure” value is listed as 18-64 mm Hg. Besides, the “change in heart rate” value in the series on mammals is “substantial decrease in heart rate”.

A word on the LD50: it is the dose at which mortality reaches 50%.
